Results on one compound are retold here after US7179814B2, “Agents for controlling plant pests” (priority 1998, dated 2007).

This assay relates to Diabrotica balteata - larvae in the soil. Kind of assay: Critical concentration test/soil insects, Diabrotica balteata (Example Q). Type of assay: in vivo. The note with it: 10.00 ppm in soil; efficacy calculated from number of emerged maize plants. Here is the method:
To produce a suitable preparation of active compound, 1 part by weight of active compound is mixed with the stated amount of solvent, the stated amount of emulsifier is added and the concentrate is diluted with water to the desired concentration. Here, the concentration of the active compound in the preparation is almost irrelevant; only the amount by weight of active compound per volume unit of soil, which is stated in ppm (mg/l), matters. The soil is filled into 0.5 l pots and these are allowed to stand at 20° C.
Immediately after preparation, 5 maize corns are placed into each pot. After 3 days, the test insects are placed into the treated soil. After a further 7 days, the efficacy is determined. The efficacy is calculated from the number of maize plants which have emerged.

For the compound `OC(Cc1ccccc1Cl)(Cn1nc[nH]c1=S)C1(Cl)CC1` (stereo not shown) [(49)], the “Kill in % at active compound concentrations in ppm” value is reported as 10.00 ppm = 0%.
